Experimental data taken from patent publication US4172148A, “Ruminant feeds containing trichloroethyl esters of essential amino acids” (E. R. Squibb & Sons, Inc., priority 1978, dated 1979).

How the values were obtained:
[1] = test system: volatile fatty acid concentrations in the in vitro rumen fermentation; assay: in vitro rumen fermentation, volatile fatty acids, alfalfa hay:concentrate 3:1 (Examples 3 and 12); set-up: species or system sheep; conditions: for Acetic acid / Acetic:propionic / Butyric acid / Propionic acid / Total acids: 6 h, 39° C.
Procedure: A one gram sample of substrate ground through a 1 mm screen is weighed into 100 ml. lipless beakers equipped with gas-release valves. The substrate consists of alfalfa hay containing approximately 16% protein and a concentrate containing ground corn 60.7%, alfalfa meal 17.5%, molasses 10.0%, soybean meal 5.3%, wheat bran 5.0%, trace mineralized salt 1.0%, limestone 0.5% and Vitamin D 300,000 I.U./ton, mixed in the proportion 3:1. The experimental composition is added to the substrate. 25 ml. of filtered rumen fluid obtained from fasted sheep maintained on feed the same as the above mentioned substrate and 25 ml. of McDougal's buffer solution serve as the inoculum. The buffer solution is as follows:
The fermentation mixture is flushed with carbon dioxide and the vessel is capped with a gas release valve. The fermentation vessel (beaker) is placed in a water bath and incubated at 39° C.±1° for six hours. The sample is mixed every hour by shaking the beaker.
At the end of the 6-hour fermentation period the sample is strained through 4 layers of cheesecloth into a sample bottle containing 1 ml. saturated solution of mercuric chloride. The sample is frozen immediately until analyzed for the volatile fatty acids (VFA) (mg/100 ml.). Prior to analysis, each sample is acidified with 30% phosphoric acid and then analyzed by gas chromatography using a column containing 5% nonylphenoxypolyoxyethylene ethanol plus 0.5% phosphoric acid on 100-120 mesh Gas Chrom S. The acids determined are acetic, propionic, butyric, isobutyric, valeric and isovaleric acids. Total VFA is considered as the addition of these acids. The ratio of acetic: propionic (A:P) is obtained by dividing the concentration of acetic acid by that of propionic acid.
The effect of various compounds alone on the volatile fatty acid concentrations was determined by the procedure of Example 3. […] A direct comparison between phenylalanine and phenylalanine trichloroethyl ester is provided.

[2] = test system: volatile fatty acid concentrations in fistulated sheep; assay: volatile fatty acid concentrations in vivo in fistulated sheep, 227 g concentrate and 680 g alfalfa hay (Examples 5 and 8); conditions: for Acetic:propionic ratio / Other acids (%) / Butyric acid (%) / Propionic acid (%) / Acetic acid (%) / Total acids: day 7
Source text: Mature sheep (wethers) fitted with permanent rumen fistulae were used to determine the effect of L-phenylalanine, 2,2,2-trichloroethyl ester on volatile fatty acid concentrations in vivo (3 wethers per treatment). The animals were individually penned and fed 227 g. of concentrate (described in Example 3) and 680 g. of alfalfa hay once daily. The test compound was admixed with the concentrate. The sheep were medicated for 7 days. Samples for analysis were obtained before (Day 0) and after treatment (Day 7) approximately 6 hours after feeding.

## Br.N[C@@H](Cc1ccccc1)C(=O)OCC(Cl)(Cl)Cl [L-Phenylalanine 2,2,2-trichloroethyl ester, hydrobromide]
[1]; 0.02 mg/ml
  Acetic acid: 95 % of control
  Acetic:propionic: 83 % of control
  Butyric acid: 106 % of control
  Propionic acid: 115 % of control
  Total acids: 101 % of control
[1]; 0.04 mg/ml
  Acetic acid: 85 % of control
  Acetic:propionic: 77 % of control
  Butyric acid: 114 % of control
  Propionic acid: 111 % of control
  Total acids: 95 % of control
[1]; 0.08 mg/ml
  Acetic acid: 95 % of control
  Acetic:propionic: 84 % of control
  Butyric acid: 108 % of control
  Propionic acid: 112 % of control
  Total acids: 100 % of control
[1]; 0.1 mg/ml
  Acetic acid: 92 % of control
  Acetic:propionic: 74 % of control
  Butyric acid: 116 % of control
  Propionic acid: 124 % of control
  Total acids: 102 % of control
[1]; 0.2 mg/ml
  Acetic acid: 90 % of control
  Acetic:propionic: 75 % of control
  Butyric acid: 114 % of control
  Propionic acid: 120 % of control
  Total acids: 100 % of control
[1]; 0.4 mg/ml
  Acetic acid: 83 % of control
  Acetic:propionic: 73 % of control
  Butyric acid: 115 % of control
  Propionic acid: 114 % of control
  Total acids: 94 % of control
[1]; at all levels (0.02-0.4 mg/ml)
  effect on acetic to propionic acid ratio (in words): decreasing the acetic to propionic acid ratio
  effect on propionic acid concentrations (in words): effective in increasing the propionic acid concentrations
[2]; 200 mg/head/day, pretreatment 3.52, control day 7 3.56
  Acetic:propionic ratio: 3.11
[2]; 200 mg/head/day, pretreatment 5.4, control day 7 5.5
  Other acids (%): 5.8%
[2]; 200 mg/head/day, pretreatment 12.8, control day 7 15.5
  Butyric acid (%): 15.1%
[2]; 200 mg/head/day, pretreatment 18.2, control day 7 17.4
  Propionic acid (%): 19.3%
[2]; 200 mg/head/day, pretreatment 63.7, control day 7 61.6
  Acetic acid (%): 59.7%
[2]; 200 mg/head/day, pretreatment 657, control day 7 698
  Total acids: 667 mg/100 ml.
[2]; 500 mg/head/day, pretreatment 3.39, control day 7 3.56
  Acetic:propionic ratio: 2.43
[2]; 500 mg/head/day, pretreatment 5.7, control day 7 5.5
  Other acids (%): 8.1%
[2]; 500 mg/head/day, pretreatment 12.7, control day 7 15.5
  Butyric acid (%): 18.0%
[2]; 500 mg/head/day, pretreatment 18.6, control day 7 17.4
  Propionic acid (%): 21.5%
[2]; 500 mg/head/day, pretreatment 63.1, control day 7 61.6
  Acetic acid (%): 52.5%
[2]; 500 mg/head/day, pretreatment 614, control day 7 698
  Total acids: 624 mg/100 ml.
[2]; fistulated sheep, 7 days
  effect on acetic:propionic ratio (in words): decreased the acetic:propionic ratio
  effect on proportion of propionic acid (in words): increased the proportion of propionic acid
